Data set [1] in a line: Specific activity of the purified IOMTs with the most converted substrate. In kind it is biochemical. The settings on record: 50 μM S-adenosyl methionine, 100 μM acceptor substrate. As to the method:
(§1) For determination of specific activities, reactions (100 μl) were performed in 0.1 M potassium phosphate, pH 7.4, 10% (w/v) sucrose, 14 mM β-mercaptoethanol with 0.2-μg protein, 50 μM S-adenosyl-L-methionine (0.025 μCi ^14C-SAM per reaction), and 100 μM substrate. Reactions were incubated at 30° C. for 15-25 min and stopped by addition of 4 μl of 1N HCl. Products were extracted into 500 μl of ethyl acetate and 400 μl was used for liquid scintillation counting.

Data set [2] in a line: Quantification of methylated products in reactions with dihydrodaidzein. It counts as biochemical. The protocol: (§2) Reactions (200 μl) were performed in 0.1 M potassium phosphate, pH 7.4, 10% (w/v) sucrose, 14 mM β-mercaptoethanol with 10 μM protein, 0.5 mM S-adenosyl-L-methionine, and 80 μM phenolic substrates. All substrates were purchased from Indofine (Hillsborough, N.J.) except 6,7-dihydroxy-4′-methoxyisoflavone, dihydrodaidzein, and vestitol, which were purchased from Apin (Oxfordshire, UK). […] OMT assays were incubated at 30° C. for 2 h and extracted with ethyl acetate. Ethyl acetate extracts were dried under N2 and the resultant material was resuspended in 50-100 μl of methanol. Samples were analyzed on an Agilent 1100 HPLC, equipped with a quaternary pump (model #G1311A), a degasser (model #G1322A), an autosampler (model #G1313A), and a diode array detector (model #G1315A). Samples of 20 μl were applied to an ODS2 reverse-phase column (5 μm particle size, 4.6×250 mm) and eluted in 1% (v/v) phosphoric acid with an increasing gradient of acetonitrile (0-5 min, 25%; 5-35 min, 25-50%; 35-39 min, 50-100%) at a flow rate of 1 ml/min. To resolve the 4′-O-methylated and 7-O-methylated products of genistein, samples were applied to a Phenomenex SYNERGI Polar-RP 80 Å column (4 μm particle size, 4.6×250 mm) and eluted in water with an increasing gradient of acetonitrile (0-5 min, 20%; 5-17 min, 20-38%; 17-33 min, 38%; 33-45 min, 38-56%; 45-46 min, 56-100%) at a flow rate of 1 ml/min. Chiral chromatography was performed as described (Liu et al., 2005).
An HP 1100 series II LC system (Hewlett-Packard, Palo Alto, Calif.) with a photodiode array detector was coupled to a Bruker Esquire ion-trap mass spectrometer (ITMS) equipped with an electrospray ionization source. A reverse phase, C18, 5 μm, 4.6×250 mm column (J. T. Baker, Phillipsburg, N.J.) was used for separations. The mobile phase consisted of 0.1% (v/v) acetic acid using linear gradients of 5-90% acetonitrile (v/v) in 70 min. The flow rate was 0.8 ml/min, and the temperature of the column was kept at 28° C. Both positive- and negative-ion mass spectra were acquired. Positive-ion ESI was performed using an ion source voltage of 4.0 KV and a capillary offset voltage of 86.0 V. Nebulization was aided with a coaxial nitrogen sheath gas provided at a pressure of 60 psi. Desolvation was aided using a counter current nitrogen flow set at a pressure of 12 psi and a capillary temperature of 300° C. Mass spectra were recorded over the range 50-2200 m/z. The ITMS was operated under an ion current control of approximately 10,000 with a maximum acquire time of 100 ms. Tandem mass spectra were obtained in manual mode for targeted masses using an isolation width of 2.0, fragmentation amplitude of 2.2 and threshold set at 6,000.
To determine the regio-specificity of methylation, reaction products were subjected to HPLC separation and identified by comparison to available standards, or subjected to tandem MS analysis (FIGS. 10-13; Table 4)

For a further data set, the target named is T1, MtIOMT5 (Medicago truncatula, UniProt Q29U70).
T1 construct: His-tag (N); made in house; host or cells: E. coli BL21(DE3)
T1 sequence (Q29U70 1-364): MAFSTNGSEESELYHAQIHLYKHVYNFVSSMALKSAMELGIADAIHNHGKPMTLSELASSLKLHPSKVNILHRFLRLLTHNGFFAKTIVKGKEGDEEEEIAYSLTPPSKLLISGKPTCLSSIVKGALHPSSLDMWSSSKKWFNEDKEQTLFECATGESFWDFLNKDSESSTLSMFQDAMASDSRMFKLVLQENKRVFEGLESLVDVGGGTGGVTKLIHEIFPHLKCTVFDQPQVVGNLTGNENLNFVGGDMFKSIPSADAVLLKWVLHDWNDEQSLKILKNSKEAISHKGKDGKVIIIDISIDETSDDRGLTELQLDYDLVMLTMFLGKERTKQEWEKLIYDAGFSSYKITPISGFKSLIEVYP
Kind of data set: OMT assays with purified recombinant MtIOMT5 (relative activity; HPLC/MS of products). It counts as biochemical. Particulars: for Position of methylation / reaction products, MtIOMT5: HPLC against standards, tandem MS.
Source text: (§3) Cloning of MtIOMT5 (corresponding to TC 100926, TIGR MtGI v.8) was as described previously (Liu et al., 2005). To obtain a full-length cDNA for MtIOMT2, specific primers designed based upon the M. truncatula genomic sequence were used to amplify the MtIOMT2 coding sequence from M. truncatula root cDNA. The amplified product was cloned into the pGEM®-T easy vector (Promega, Madison Wis.) and sequenced to confirm its identity. MtIOMTs were cloned into the pET28a vector (EMD Biosciences, Inc., San Diego, Calif.) using PCR-based amplification with primers designed to introduce EcoRI and XhoI restriction sites; BamHI and XhoI sites were used for cloning MtIOMT6 due to the presence of an internal EcoRI site in this particular cDNA. Because the EST for MtIOMT8 was missing a start codon, the primer designed to clone MtIOMT8 into pET28a contained an additional 2-nucleotide insertion to generate an ATG start site. All MtIOMTs were expressed as translational fusions to an N-terminal His-tag. Expression of MtIOMTs in E. coli BL21(DE3) and purification by Ni^2+-NTA chromatography were as described (Zubieta et al., 2001). Proteins were dialyzed against 20 mM Tris pH 8.0, 100 mM NaCl, 10% (v/v) glycerol, and 14 mM β-mercaptoethanol. Protein concentration was determined by Bradford assay using BSA as a standard (Bradford, 1976).
as §2, §1
An HP 1100 series II LC system (Hewlett-Packard, Palo Alto, Calif.) with a photodiode array detector was coupled to a Bruker Esquire ion-trap mass spectrometer (ITMS) equipped with an electrospray ionization source. A reverse phase, C18, 5 μm, 4.6×250 mm column (J. T. Baker, Phillipsburg, N.J.) was used for separations. The mobile phase consisted of 0.1% (v/v) acetic acid using linear gradients of 5-90% acetonitrile (v/v) in 70 min. The flow rate was 0.8 ml/min, and the temperature of the column was kept at 28° C. Both positive- and negative-ion mass spectra were acquired. […]

The target in the next data set is T2, MsI7OMT (Medicago sativa, UniProt O24529).
T2 sequence (O24529 1-352): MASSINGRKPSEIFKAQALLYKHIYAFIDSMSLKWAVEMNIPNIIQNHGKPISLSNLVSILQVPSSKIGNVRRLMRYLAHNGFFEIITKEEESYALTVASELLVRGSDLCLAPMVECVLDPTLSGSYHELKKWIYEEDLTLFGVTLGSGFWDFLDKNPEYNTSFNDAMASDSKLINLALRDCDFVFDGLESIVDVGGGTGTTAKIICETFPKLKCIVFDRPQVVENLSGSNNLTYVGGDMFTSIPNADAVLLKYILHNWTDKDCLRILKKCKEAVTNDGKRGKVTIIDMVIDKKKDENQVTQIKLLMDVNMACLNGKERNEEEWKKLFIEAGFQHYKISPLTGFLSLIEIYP
The settings on record: reported by He et al., 1998; cited from earlier work.

The test system of another data set is MtIOMT7. Kind of data set: OMT assays with purified recombinant MtIOMT7 (relative activity; HPLC/MS of products). In kind it is biochemical, Medicago truncatula. The settings on record: 50 μM S-adenosyl methionine, 100 μM acceptor substrate; most converted substrate = 100%.
Source text: as §3, §2, §1
An HP 1100 series II LC system (Hewlett-Packard, Palo Alto, Calif.) with a photodiode array detector was coupled to a Bruker Esquire ion-trap mass spectrometer (ITMS) equipped with an electrospray ionization source. A reverse phase, C18, 5 μm, 4.6×250 mm column (J. T. Baker, Phillipsburg, N.J.) was used for separations. The mobile phase consisted of 0.1% (v/v) acetic acid using linear gradients of 5-90% acetonitrile (v/v) in 70 min. The flow rate was 0.8 ml/min, and the temperature of the column was kept at 28° C. Both positive- and negative-ion mass spectra were acquired.

Where no end group is shown, it is not given here.

The values below come from patent US8809627B2, “Plant isoflavone and isoflavanone O-methyltransferase genes” (The Samuel Roberts Noble Foundation, Inc., priority 2006, dated 2014).

In the case of “MtIOMT3: M. truncatula isoflavonoid O-methyltransferase, His-tagged, expressed in E. coli; GenBank DQ419911 (TYVGGDMFISVPKADAVLLKAVLHDWTDKDCIKILKKCKE; cysteine pairing not given here; also: His-tagged; listed as Medicago truncatula)”, in data set [1], the “Specific activity at 100%” value turned out to be 7.4 pkat/mg. In data set [2], the “% 4′-Methylated” value was found to be 92%, the “% 7-Methylated” value was found to be 8%, the “% Dimethylated” value was 0% and the “Ratio 4′/7-methylated” value amounted to 11.4.

Regarding `O=C1C[C@@H](c2ccc(O)cc2)Oc2cc(O)ccc21` [Liquiritigenin], the “Position of methylation / reaction products, MtIOMT5” value on MtIOMT5 is listed as “methylated on the 4′-positions”. The “Enantiomer methylated, MtIOMT5” value on MtIOMT5 (chiral HPLC of unreacted substrate) is “preferentially methylates the (2R)-enantiomer”.

Turning to `COc1ccc(-c2coc3cc(O)cc(O)c3c2=O)cc1` [biochanin A], the “Activity of MsI7OMT with 4′-methoxyisoflavones (in words)” value at MsI7OMT is reported as “little activity”.

For “MtIOMT1: M. truncatula isoflavonoid O-methyltransferase, His-tagged, expressed in E. coli; GenBank AY942159 (TYVGGDMFTSIPNADAVLLKYILHNWTDKDCTRILKKCKE; cysteine pairing not given here; also: His-tagged; listed as Medicago truncatula)”, in data set [1], the “Specific activity at 100%” value was found to be 3646.7 pkat/mg. Moreover, in data set [2], the “% 4′-Methylated” value is 0%, the “% 7-Methylated” value is on record as over 99%, the “% Dimethylated” value is listed as under 1% and the “Ratio 4′/7-methylated” value was determined as 0.

For the compound “MtIOMT2: M. truncatula isoflavonoid O-methyltransferase, His-tagged, expressed in E. coli; GenBank DQ419910 (NFVGGDMFKSVPSADAVLLKWVLHDWNDELCLKILKNCKE; His tag; listed as Medicago truncatula)”, the “Specific activity at 100%” value in data set [1] is 930.2 pkat/mg. Further, in data set [2], the “% 4′-Methylated” value is 33%, the “% 7-Methylated” value is given as 66%, the “% Dimethylated” value is under 1% and the “Ratio 4′/7-methylated” value amounted to 0.5.

Regarding `O=C1c2ccc(O)cc2OC(O)C1c1ccc(O)cc1` (stereo not drawn) [2,7,4′-trihydroxyisoflavanone], the “Relative activity, MtIOMT5” value on MtIOMT5 (50 μM S-adenosyl methionine, 100 μM acceptor substrate, most converted substrate = 100%) is given as 100%. Further, at MtIOMT5, the “Position of methylation / reaction products, MtIOMT5” value is given as “exclusively methylated on the 4′-position”. Also, the “Relative activity, MtIOMT7” value in the data set with MtIOMT7 is recorded as 24.8%.
